# According to patent US10765621B2, “Extracts of halimione portulacoides and their application” (Cutech Srl, priority 2013, dated 2020):
# Experiments:
# [1] = tested on: IL-1α; assay: IL-1α release by ex-vivo human skin stimulated with 2% SDS (ELISA); assay type: cell-based
# Procedure: In order to study the biological activity of the extracts from Halimione on the inflammatory response of skin to irritation, the experimental protocol summarized below was adopted: Ex-vivo skin samples (7 mm in diameter) were cultivated for 24 hours in 6-well plates (4 skin samples/well) with 2.5 ml/well of modified Williams E medium.
# After 24 hours of culture the culture medium was renewed and the skin samples 2 to 6 received the irritant stimulus (2% SDS) through topical application of 4 μl of preparation on each skin sample. After 3 hours the stimulus was removed by means of cotton buds and then 4 μl of extract or dexamethasone were topically administered to the groups 3 to 6. Stimulus and lenitive treatments were diluted in 50% DMSO.
# After a further 24 hours of cultivation, the culture media were separately collected from each group and the released IL-1α quantified via ELISA (BioLegend ELISAMAX cat. n. 434905).
# Table 14 reports the average values of IL-1α obtained from the two medium samples (4 skin samples/well) collected for each experimental group.
# [2] = tested on: hair follicles; settings: usual response, indicative; cited from earlier work
compound,measurement,setting,value
"C[C@@H]1C[C@H]2[C@@H]3CCC4=CC(=O)C=C[C@]4(C)[C@@]3(F)[C@@H](O)C[C@]2(C)[C@@]1(O)C(=O)CO [Dexam., dexamethasone]",IL-1α released in culture medium,"[1]; 2% SDS stimulus, then lenitive treatment 10 mM (positive control), 24 h",9.9 pg/mL
CCCCCCCCCCCCOS(=O)(=O)[O-].[Na+] [SDS],IL-1α released in culture medium,"[1]; 2% SDS stimulus without lenitive treatment (negative control), unstimulated control 1.3",14.8 pg/mL
insulin,Hair follicle growth increment produced by well-known stimulants / positive controls,[2],10%
